Test results taken from patent publication US5468727A, “Methods of normalizing metabolic parameters in diabetics” (Board of Regents, The University of Texas System, priority 1993, dated 1995).

Assays:
[1] = system: obese diabetic Zucker rats; assay: Gastric emptying by gamma scintigraphy with camostat, diabetic rats; assay type: in vivo; details: diabetic Zucker rats 10 wks old, 1% camostat in 30% glucose solution by gavage; without 38.4±18 min
Description: (§1) Eight male obese Zucker rats of a strain that becomes diabetic by 10 wks of age and 8 matched lean Zucker rats as controls were studied. After overnight fast, rats 10 wks old were fed by gavage a 30% glucose solution ([…] body weight) containing 150 μCi of ^99m Tc-SC. Each rat was tested with and without 1% camostat, a trypsin inhibitor known to stimulate CCK release, in the glucose solution. Gastric emptying was monitored by gamma scintigraphy at 10 min intervals. Fasting and 1 hr postprandial plasma glucose were determined.

lean Zucker rats = assay: Gastric emptying by gamma scintigraphy with camostat, lean rats; assay type: in vivo; details: lean Zucker rats 10 wks old, 1% camostat in 30% glucose solution by gavage; without 65.1±5.7 min
Description: as §1

[2] = system: obese diabetic Zucker rats; assay: Fasting and 1 hr postprandial plasma glucose with camostat, diabetic rats; assay type: in vivo; details: fasting to 1 hr postprandial, 1% camostat in 30% glucose solution, without Camostat 270-±18 mg/dl
Description: as §1

[3] = system: subjects with early NIDDM; assay: Gastric emptying study (gamma camera, 99mTc-SC glucose solution) with CCK-8 infusion; assay type: in vivo, human
Text: Seven subjects with early NIDDM (diagnosed for less than 2 years) underwent two separate gastric emptying studies. Subjects were five men and two women ranging in age from 33 to 49 and previously diagnosed as diabetic according to current WHO criteria using a 75 g glucose tolerance test (OGTT) with blood sampled fasting and at 2 hr. All patients had been on oral hypoglycemic medication which was discontinued the evening prior to the study. All studies were begun between 7-8 am following a 12 hour fast.
An 18 gauge angiocatheter was placed in one antecubital fossa for blood drawing while another 18 gauge angiocatheter was placed in the other antecubital fossa for a 0.9% (normal saline) infusion ([…]). Gastric emptying studies utilizing a gamma camera (Scintronix USA, Inc., Woburn Mass.) were performed with a modified 0.62M (50 g glucose in 450 ml water) glucose solution. This solution has been used previously in gastric emptying studies (Schwartz, et al., 1990). […]
The subjects were then seated at a 90 degree angle in front of a gamma camera. […] Counts in the stomach region of interest were calculated in each 60 second image. After correcting for radioactive decay, the count rates were converted to a percentage of the maximum count rate recorded. […]

[4] = system: subjects with early NIDDM; assay: Plasma glucose after glucose solution with CCK-8 infusion; assay type: in vivo, human; details: iv CCK-8 infusion
Description: (§2) Blood samples were drawn from the indwelling 18 gauge angiocatheter in the antecubital fossa at 15 min intervals beginning just prior to ingestion of the glucose solution and ending at 120 min. Blood for glucose evaluation was collected in grey-top vacutainer tubes containing potassium oxalate and sodium fluoride. Blood for insulin and C-peptide was collected in red top tubes. Samples for hemoglobin A-1-C, gastric inhibitory polypeptide (GIP) and CCK were collected in lavender top tubes containing EDTA. All glass tubes were from Becton Dickinson Vacutainer Systems, Rutherford, N.J. Glucose analysis were performed on a Paramax instrument (Baxter Healthcare Corp., Irvine, Calif.). Hemoglobin A1C was performed by the micro column test (Bio-Rad, Hercules, Calif. 94547).
(§3) The second study was performed 3 days later. Subjects drank the glucose solution and a gastric emptying study was performed with simultaneous infusion of CCK (Kinevac™, Squibb Diagnostics Princeton, N.J. 08543) at 48 pM/kg/hr.
Infusions of the saline solution for the first test and the CCK solution for the second test were begun 10 min prior to ingestion of the glucose solution.

[5] = system: subjects with early NIDDM; assay: Plasma GIP by radioimmunoassay with CCK-8 infusion; assay type: in vivo, human; details: iv CCK-8 infusion; without CCK-8 420.4 pg/ml; P=0.0032
Description: as §2
(§4) The C-peptide assay was performed by Smith Kline Bioscience Laboratories, Van Nuys, Calif. by radioimmunoassay (Diagnostic Products, Los Angeles, Calif. 90045). The assay for insulin was performed by Smith Kline Bioscience Laboratory, St. Louis, Mo. by radioimmunoassay (Pharmacia Diagnostics, Fairfield, N.J. 07004). Assays for GIP and CCK were performed by radioimmunoassay by the Gastroenterology Unit at Mayo Clinic (Rochester, Minn. 55905) using in-house kits.
(§5) The second study was performed 3 days later. […]

[6] = system: subjects with early NIDDM; assay: Serum insulin by radioimmunoassay with CCK-8 infusion; assay type: in vivo, human; details: iv CCK-8 infusion
Description: as §2, §4, §5

[7] = Plasma CCK by radioimmunoassay with CCK-8 infusion; assay type: in vivo, human; details: during iv CCK-8 infusion; without CCK-8 20.8 pmol/L; P=0.0247
Description: as §2, §4, §5

[8] = system: subjects with early NIDDM; assay: Adverse effects during CCK-8 infusion; assay type: in vivo, human; details: iv CCK-8 infusion, 2 hr
Description: as §3
None of the subjects reported any nausea or abdominal distress during the CCK-8 infusions.

Row | average plasma CCK-8 excursion [7] [pmol/L] | Compound | gastric half-emptying time [1] [min] | gastric half-emptying time (lean Zucker rats) [min] | incremental increase in plasma glucose [2] [mg/dL] | gastric half-emptying time ([3]; average, 7 early NIDDM subjects, iv CCK infusion 48 pM/kg/hr, 50 g glucose in 450 ml, without CCK-8 40.9 min, P=0.0042) [min] | average area under the gastric emptying curve during the 2-hr period, relative to the same patients not receiving CCK-8 ([3]; iv CCK-8 infusion, early NIDDM subjects, 2 hr) [%] | average glucose excursion value during the 2-hr period, relative to saline infusion ([4]; 2 hr) [%] | average glucose excursion value during the 2-hr period ([4]; saline 5.6 mmol/liter, P=0.0550) [mmol/L] | average glucose concentration during the 2-hr period following the glucose meal ([4]; saline infusion 17.1, P=0.0073) [mmol/L] | average GIP excursion over the 2 hr period [5] [pg/mL] | average insulin concentration over the 2 hr period, relative to saline infusion ([6]; not statistically significant) [%] | average insulin concentration over the 2 hr period ([6]; without CCK-8 44.2 μU/ml, P=0.1480) [μU/ml] | adverse effects (nausea, abdominal distress) during infusion [8]
1 | – | CN(C)C(=O)COC(=O)Cc1ccc(OC(=O)c2ccc(NC(=N)N)cc2)cc1 [Camostat] | 141 ± 33 | 167 ± 25 | 160 ± 15 | – | – | – | – | – | – | – | – | –
2 | 49.6 | CSCC[C@H](NC(=O)[C@H](Cc1ccc(OS(=O)(=O)O)cc1)NC(=O)[C@@H](N)CC(=O)O)C(=O)NCC(=O)N[C@@H](Cc1c[nH]c2ccccc12)C(=O)N[C@@H](CCSC)C(=O)N[C@@H](CC(=O)O)C(=O)N[C@@H](Cc1ccccc1)C(N)=O [CCK-8, Cholecystokinin-octapeptide] | – | – | – | 94.2 | 175 | 66 | 3.7 | 14.0 | 266.4 | 68 | 30.2 | No adverse effects were reported or observed
